# Measured values as given in patent US5877204A, “Compounds containing a michael-acceptor, especially maleimide or maleic acid derivatives, directly or indirectly linked to a chromophore and their use in long lasting sunscreen compositions” (Vanguard Medica Limited, priority 1994, dated 1999).
# “And” between values parts separate entries of the source, which are not always exact repeats. Identical values can stand only once. Like-named read-outs stand apart in the source and are kept apart here.
# Experiments:
# [1] = background, known sunscreen absorbers; cited from earlier work
# [2] = Ames tests (mutagenicity and toxicity), with or without rat liver metabolic activation system S9; assay type: cell-based
# Text: Among the important criteria for topically applied sunscreens, safety in use has the highest priority. It was thus necessary to investigate the mutagenicity of the maleimide and maleamic acid derivatives of sunscreens. Six compounds of the present invention were chosen as representative of the main classes of sunscreen and submitted for Ames tests.
# [3] = UV absorption of the chromophore (λmax, ε); assay type: physicochemical; set-up: key to λmax: λmax in nm; conditions: for ε: at λmax, in M-1·cm-1 (unit assumed)
# Text: This can sometimes be a problem since if the change in λmax is too great, the chromophore may no longer absorb light in the UVA or UVB wavelength range.
# An example of this change is 4-aminobenzophenone which has a λmax of 318 nm which is in the UVB range. When the amino group is replaced by a maleamic acid group, the λmax of the chromophore shifts to 306 nm which is still within the UVB range but when the amino group is replaced by a maleimide residue, the λmax falls to 258 nm. This is outside the range of UVB although there is a restoration of UVB activity when the maleimide is reacted with cysteine as it would be when applied to the skin (λmax=293 nm). The changes are easily rationalised on the basis of conjugative effects but the effects of attaching Michael acceptors to the various chromophores which may be used cannot always easily be predicted. This problem can be overcome to a large extent simply by separating the chromophore from the Michael acceptor using a spacer. Particularly useful compounds therefore include those in which the group R is C1 -C8 alkyl-YZ, C2 -C8 alkenyl-YZ or C2 -C8 alkynyl-YZR and especially those in which Y is O. Compounds in which a hexyloxy linker is used (that is, R is (CH2)6 OZ) are especially preferred.
# [4] = Reaction of maleimide derivatives with L-cysteine ethyl ester (tlc); conditions: room temperature
# Description: In order to underpin the principle of reaction of maleimido derivatives with the cysteine thiol groups, two model reactions were studied. Thus the reactions between L-cysteine ethyl ester and N-phenylmaleimide and N-(4-benzoylphenyl)maleimide were carried out. In each case, the reaction produced the diastereoisomeric product mixtures in reasonable yields at room temperature. All starting maleimides had reacted within 30 minutes (tlc). The two products were isolated and characterised.
# The mildness and rapidity of these reactions indicate that the maleimido groups confer the ability for reaction with the nucleophilic groups of keratin.
# DNA = conditions: cited from earlier work
# hair keratin = assay: Substantivity test with human hair (uv assay of supernatant); assay type: binding
# Description: Initial tests were conducted with human hair specially cleaned and prepared to provide as near to a standard substrate as possible. The method adopted utilised the reduction in ultra-violet absorptivity in the supernatant solution in contact with hair when the compound under test was absorbed into the hair surface. Standard and control solutions were employed. […] Similar tests with hair have been quoted in the patent literature as evidence, and as a standard test, for substantivity of sunscreens and other cosmetics.
# horn hoof keratin = assay: Substantivity test with powdered horn-hoof keratin (uv absorptivity); assay type: binding, various animals
# Text: Keratin prepared from the horns and hooves of various animals is commercially available, and this was used in a similar way to the hair (above). The keratin was finely powdered and stirred with a solution of the maleimido compound and its substantivity estimated by uv absorptivity measurements.
# [5] = effect of attaching Michael acceptor to 4-aminobenzophenone chromophore
# [6] = characterisation in the Examples, solvent not stated
# [7] = uv assay, 1.0000 g hair, single tests (0.4520 g and 0.4670 g maleimide added)
# [8] = 1.0000 g horn hoof keratin, single tests (0.4360 g and 0.4741 g maleimide added)
# [9] = horn hoof keratin, average of the two tests
smiles,measurement,setting,value
CCCCC(CC)COC(=O)C=Cc1ccc(OC)cc1 (centres unmarked) [2-ethylhexyl-4'-methoxycinnamate],λmax,[1],308 nm
"O=C(O)/C=C/c1ccc(N2C(=O)C=CC2=O)cc1 [Example 6, N-[4-(2-carboxy-(E)-ethenyl)phenyl]maleimide]",Toxicity,[2]; +S9,200 μG plate^-1
same,Toxicity,[2]; -S9,200 μG plate^-1
"O=C(c1ccccc1)c1ccc(N2C(=O)C=CC2=O)cc1 [Example 4, N-(4-benzoylphenyl)maleimide]",Toxicity,[2]; +S9,100 μG plate^-1
same,Toxicity,[2]; -S9,40 μG plate^-1
same,λmax,[3]; [5],258 nm
same,time within which all starting maleimide had reacted,[4],≤ 30 min
"CCCCOC(=O)c1ccc(NC(=O)/C=C\C(=O)O)cc1 [Example 9, N-(4-n-butyloxycarbonylphenyl)maleamic Acid]",ε,[3]; solvent not stated,15806
same,λmax,[3]; [6],294 nm
"COC(=O)c1ccc(N2C(=O)C=CC2=O)cc1 [Example 8, N-(4-methoxycarbonylphenyl)maleimide]",ε,[3]; solvent not stated,15844
same,λmax,[3]; [6],245 nm
"O=C(O)/C=C\C(=O)Nc1ccc(C(=O)O)cc1 [Example 1, N-(4-carboxyphenyl)maleamic Acid]",Toxicity,[2]; +S9,5000 μG plate^-1
same,Toxicity,[2]; -S9,5000 μG plate^-1
"COc1c2ccoc2cc2oc(=O)ccc12 [5-methoxypsoralen (5-MOP), 5-methoxypsoralen]",photobinding to DNA,DNA,photobinds to DNA
same,photocarcinogenicity,DNA,photocarcinogen
same,photomutagenicity,DNA,photomutagen
CCN1C(=O)C=CC1=O,Toxicity,[2]; +S9,50 μG plate^-1
same,Toxicity,[2]; -S9,25 μG plate^-1
"Nc1ccc(C(=O)c2ccccc2)cc1 [4-aminobenzophenone, reference compound]",λmax,[3]; [5],318 nm
"O=C(c1ccccc1)c1ccc(OCCCCCCN2C(=O)C=CC2=O)cc1 [Example 12, N-[6-(4-benzoylphenoxy)-hexyl]-maleimide]",Toxicity,[2]; +S9,800 μG plate^-1
same,Toxicity,[2]; -S9,200 μG plate^-1
same,λmax,[3]; CH2 Cl2,286 nm
same,ε,[3]; CH2 Cl2,16590
"O=C(O)/C=C\C(=O)NCCCCCCOc1ccc(C(=O)c2ccccc2)cc1 [Example 11, N-[6-(4-benzoylphenoxy)-hexyl]-maleamic Acid]",Toxicity,[2]; +S9,2500 μG plate^-1
same,Toxicity,[2]; -S9,2500 μG plate^-1
same,λmax,[3]; CH2 Cl2,285 nm
same,ε,[3]; CH2 Cl2,16047
"COC(=O)c1ccc(NC(=O)/C=C\C(=O)O)cc1 [Example 7, N-(4-methoxycarbonylphenyl)maleamic Acid]",ε,[3]; solvent not stated,16013
same,λmax,[3]; [6],294 nm
"O=C(O)/C=C\C(=O)Nc1ccc(C(=O)c2ccccc2)cc1 [Example 3, N-(4-benzoylphenyl)maleamic Acid]",Toxicity,[2]; +S9,2500 μG plate^-1
same,Toxicity,[2]; -S9,2500 μG plate^-1
same,Mutagenicity,"[2]; Ames test, with or without S9",Negative
same,ε,[3]; solvent not stated,20560
same,λmax,[3]; [6],306 nm
same,λmax,[3]; [5],306 nm
O=C1C=CC(=O)N1c1ccccc1 [N-phenylmaleimide],Average substantivity,"hair keratin; hair, average of the two tests",24.5%
same,Average wt maleimide absorbed,"hair keratin; hair, average of the two tests",0.1129 g
same,reduction in ultra-violet absorptivity of supernatant in contact with hair,"hair keratin; initial tests, in words",considerable reduction in absorptivity
same,Substantivity,hair keratin; [7],18.5% and 30.4%
same,Wt maleimide absorbed,hair keratin; [7],0.0837 g and 0.1421 g
same,Substantivity,horn hoof keratin; [8],22.2% and 21.1%
same,Wt maleimide absorbed,horn hoof keratin; [8],0.0968 g and 0.1001 g
same,Average substantivity,horn hoof keratin; [9],21.7%
same,Average wt maleimide absorbed,horn hoof keratin; [9],0.0985 g
same,time within which all starting maleimide had reacted,[4],≤ 30 min
NC(CSC1CC(=O)N(c2ccc(C(=O)c3ccccc3)cc2)C1=O)C(=O)O (centres unmarked) [maleimide reacted with cysteine],λmax,[3]; [5],293 nm
"O=C(O)/C=C\C(=O)Nc1ccc(/C=C/C(=O)O)cc1 [Example 5, N-[4-(2-carboxy-(E)-ethenyl)phenyl]maleamic Acid]",Toxicity,[2]; +S9,5000 μG plate^-1
same,Toxicity,[2]; -S9,5000 μG plate^-1
"O=C(O)c1ccc(N2C(=O)C=CC2=O)cc1 [Example 2, N-(4-carboxyphenyl)maleimide]",Toxicity,[2]; +S9,500 μG plate^-1
same,Toxicity,[2]; -S9,500 μG plate^-1
COc1ccc(C(=O)CC(=O)c2ccc(C(C)(C)C)cc2)cc1 [4-^t butyl-4'-methoxydibenzoylmethane],λmax,[1],355 nm
"CCCCOC(=O)c1ccc(N2C(=O)C=CC2=O)cc1 [Example 10, N-(4-n-butyloxycarbonylphenyl)maleimide]",ε,[3]; solvent not stated,15563
same,λmax,"[3]; characterisation in Example 10, unit not given",245
